Data taken from patent US20240285514A1, “EXTRACTS OF EUTERPE OLERACEA, METHODS OF MAKING, AND USES THEREOF” (Naturesphix Limited, priority 2021, published 2024).

Assays:
human keratinocytes [1] = experiment: Antioxidant potential against UVB radiation in keratinocytes (24 h pre-treatment, DCFH-DA probe); type: cell-based; conditions: 10 μg/mL; incubation 24 hours before UVB 90 mJ/cm^2; vs vehicle+UVB
Description: (§1) The 2′,7′ dichlorofluorescein diacetate (nonfluorescent) is de-esterified intracellularly and becomes a 2′,7′ highly fluorescent dichlorofluorescein after oxidation. Fluorescence detection was performed at 485 nm excitation wavelength and 535 nm emission wavelength in SpectraMax i3x (Molecular Devices) equipment. […] The concentrations of the Test Substance (10 μg/mL), Ascorbic acid Reference Substance (10 μg/mL) and Ferulic acid Reference Substance (4 μg/mL) were prepared according to the description above (Test Substance, Reference Substances and Vehicle Preparation).

MMP-1 enzyme = target: T1, MMP-1 enzyme (Homo sapiens, UniProt P03956); experiment: Metalloproteinase-1 (MMP-1) enzyme activity; type: biochemical
T1 sequence (P03956 100-469): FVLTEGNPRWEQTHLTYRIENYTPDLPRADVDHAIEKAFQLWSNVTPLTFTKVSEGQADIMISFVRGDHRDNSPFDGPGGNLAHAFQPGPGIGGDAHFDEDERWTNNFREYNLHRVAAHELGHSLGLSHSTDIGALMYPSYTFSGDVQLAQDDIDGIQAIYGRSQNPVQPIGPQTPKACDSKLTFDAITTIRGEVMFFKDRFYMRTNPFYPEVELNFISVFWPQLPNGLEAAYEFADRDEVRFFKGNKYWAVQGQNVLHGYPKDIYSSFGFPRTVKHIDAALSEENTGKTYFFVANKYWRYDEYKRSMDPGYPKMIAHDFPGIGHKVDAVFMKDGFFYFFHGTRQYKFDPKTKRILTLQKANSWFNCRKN
Description: The MMP-1 enzyme was evaluated after incubation with the Vehicle (0.04% DMSO), ST-035 (10 μg/mL), Ascorbic acid Reference Substance (10 μg/mL), Ferulic acid Reference Substance (4 μg/mL) or positive control of the test, GM6001, a MMP-1 enzyme activity inhibitor. The bars represent the mean±standard error of the mean of 1 assay performed in triplicate. The percentage of inhibition was calculated in relation to the Vehicle group. For the statistical analysis a one-way analysis of variance (ANOVA) was used, followed by the Newman-Keuls test (*p<0.05 in comparison to Vehicle group).

human keratinocytes [2] = experiment: Scavenger activity against UVB radiation, section headed 'in Fibroblasts' (FIG. 14); type: cell-based; conditions: 10 μg/mL added immediately prior to UVB 90 mJ/cm2; vs vehicle+UVB
Description: as §1

human keratinocytes [3] = experiment: Intrinsic antioxidant activity (basal EROs production) with DCFH-DA probe in keratinocytes; type: cell-based; conditions: no UVB, vs vehicle
Description: as §1, with “Preparation). The intrinsic antioxidant activity of Test Substance in human keratinocytes was evaluated as follows. […] Subsequently, the production of EROs was evaluated through the microplate reader (485/535 nm). Two different assays were performed in triplicate. For the statistical analysis, one-way analysis of variance (ANOVA) was used, followed by the Newman-Keuls test (*p<0.05 in comparison to Vehicle group).” for “Preparation).”

human fibroblasts = experiment: Antioxidant potential against UVB in human fibroblasts (DCFH-DA probe); type: cell-based; conditions: pre-incubation before UVB 90 mJ/cm^2, vs vehicle+UVB
Description: as §1, with “Preparation). The human fibroblasts were incubated with a DCFH-DA probe (50 μM) for 30 minutes. After this period, the fibroblasts were incubated. For statistical analysis, one-way variance analysis (ANOVA) was used, followed by Newman-Keuls test (#p<0.05 compared to Vehicle group and *p<0.05 compared to Vehicle+UVB 90 mJ/cm^2).” for “Preparation).”

human keratinocytes [4] = experiment: Scavenger potential against UVB radiation in keratinocytes (DCFH-DA probe); type: cell-based; conditions: 10 μg/mL added immediately prior to UVB 90 mJ/cm^2; vs vehicle+UVB
Description: as §1

[5] = tested on: reconstructed human tissue model; experiment: Skin irritation assay, reconstructed human epidermis (OECD TG439); type: cell-based; conditions: 42 minutes treatment; three tissues
Description: The possible irritant action of ST-035 on a reconstructed human tissue model, as described in the OECD Guidelines for the Testing of Chemicals, Section 4, TG439 In Vitro Skin Irritation: Reconstructed Human Epidermis Test Method was evaluated. After receiving the tissues, they were readapted in growth medium overnight until the Treatment moment. After the readaptation, Negative Control, positive control (Reference Substance) or Test Substance were added in a 16 μL volume on the epidermis and maintained for 42 minutes (±1 minute). Following, each tissue went through a 25-phosphate buffer washing process to remove the Treatments. Subsequently, the epidermis was maintained for 42 hours (±1 hour) in growth medium in a CO2 incubator (5±0.1%) at 37±0.1° C. After this period, the tissues were incubated for 3 hours (±15 minutes) with a 1 mg/mL MTT solution and then 2 hours with isopropanol for the formazan complex extraction. Then, 200 μL of each well (in duplicate) were transferred to a 96-well plate for absorbance reading at 570 nm.
Skin irritation assay in a reconstructed human skin model is an alternative method that follows the OECD TG439 standards and is validated by international centers, with international regulatory acceptance. […]

tyrosinase = experiment: Tyrosinase enzyme activity; type: biochemical
Description: After that, 170 μL of L-tyrosine substrate 1 mM, solubilized in a potassium phosphate buffer 50 mM (pH 6.5) were added. After the incubation period of 30 to 40 minutes, the plate was read at 490 nm.
For the statistical analysis one-way analysis of variance (ANOVA) was used, followed by the Newman-Keuls test (*p<0.05 in comparison to the Vehicle group). The percentage of inhibition was calculated in relation to the Vehicle group.

`O=C1O[C@H]([C@@H](O)CO)C(O)=C1O` [ascorbic acid] was tested. Which “decrease of production of EROs after UVB (antioxidant capacity)” value (human keratinocytes [1]) did it give?
The value was 44.3±11.4%.

What about the inhibition at 10 µg/mL (MMP-1 enzyme; 10 μg/mL, vs vehicle) of the same compound?
The inhibition at 10 µg/mL was 9.2 ± 1.5%.

And the “reduction of UVB induced production of EROs (scavenger potential, FIG. 14)” value (human keratinocytes [2])?
The value was 46.2±2.0%.

And the “reduction of basal production of EROs” value (human keratinocytes [3]; 10 μg/mL, 4 hours)?
Its value is “did not change”.

And the “reduction of basal production of EROs” value (human keratinocytes [3]; 10 μg/mL, 24 hours)?
Its value is “did not change”.

What about the “reduction of production of reactive oxygen species (antioxidant potential)” value (human fibroblasts; 10 μg/mL) of the same compound?
Its value is 30.5±6.2%.

What about the “reduction of UVB induced production of EROs (scavenger potential)” value (human keratinocytes [4]) of the same compound?
Its value is 46.2±2.0%.

`CNC(=O)[C@H](Cc1c[nH]c2ccccc12)NC(=O)[C@@H](CC(=O)NO)CC(C)C` [GM6001] was tested. Which “reduction of MMP-1 activity” value (MMP-1 enzyme; 1 μM, assay validation) did it give?
Its value is 81.3±1.5%.

With `COc1cc(/C=C/C(=O)O)ccc1O` [ferulic acid] as the compound, how does the “change of MMP-1 activity in vitro” value (MMP-1 enzyme; 4 μg/mL, vs vehicle) read?
Its value is “did not change”.

What about the “reduction of basal production of EROs” value (human keratinocytes [3]; 4 μg/mL, 4 hours) of the same compound?
Its value is 26.8±2.4%.

What about the “reduction of basal production of EROs” value (human keratinocytes [3]; 4 μg/mL, 24 hours) of the same compound?
Its value is 45.8±6.6%.

What about the “reduction of production of reactive oxygen species (antioxidant potential)” value (human fibroblasts; 4 μg/mL) of the same compound?
The value was 47.4±0.5%.

Which “tissue viability mean (absorbance at 570 nm)” value [5] does the source give for `CCCCCCCCCCCCOS(=O)(=O)[O-].[Na+]` [SDS, sodium dodecylsulfate] here?
The value was 0.018±0.001.

For `O=c1cc(CO)occ1O` [kojic acid], which “reduction of tyrosinase enzyme activity” value (tyrosinase; 300 μg/mL) is on record?
Its value is 43%.

And the “reduction of tyrosinase enzyme activity” value (tyrosinase; 1,000 μg/mL)?
Its value is 84%.
